Measured values taken from patent publication US20090011418A1, “FUNCTIONAL TOLL-LIKE RECEPTORS (TLR) ON MELANOCYTES AND MELANOMA CELLS AND USES THEREOF” (JOHN WAYNE CANCER INSTITUTE, priority 2007, published 2009).

Experiments:
PBLs = assay: FITC-LPS fluorescence microscopy staining; assay type: binding, human; conditions: 20 μg/ml FITC-LPS, 20 min, fixed cells
Procedure: Cells were fixed with 4% paraformaldehyde in PBS for 10 min, and then incubated inside a 37° C. humidified atmosphere containing 5% CO2 for 20 min in RPMI 1640 medium supplemented with 10% FBS and 20 μg/ml of fluorescein isothiocyanate (FITC)-LPS (Sigma, St Louis, Mo.). After washing, cells were visualized using an Olympus IX70 fluorescence microscope. The images were recorded using an Olympus C-3030 Zoom Camedia Digital Camera. […] The inventors employed FITC-LPS to assess binding to TLR4 on the cell surface of melanoma lines. PIC-FITC and zymosan-FITC were not available for assessment. […] The FITC-LPS analysis confirmed TLR4 receptor staining on the melanoma cell surface.

[1] = biological target: T1, TLR4 on the cell surface of melanoma lines (Homo sapiens, UniProt O00206+Q9Y6Y9); assay: FITC-LPS fluorescence microscopy binding; conditions: 20 μg/ml FITC-LPS, 20 min, fixed cells
T1 construct: endogenous in cells; host or cells: human melanoma cell lines (fixed with paraformaldehyde); PBLs as comparison
Procedure: Cells were fixed with 4% paraformaldehyde in PBS for 10 min, and then incubated inside a 37° C. humidified atmosphere containing 5% CO2 for 20 min in RPMI 1640 medium supplemented with 10% FBS and 20 μg/ml of fluorescein isothiocyanate (FITC)-LPS (Sigma, St Louis, Mo.). After washing, cells were visualized using an Olympus IX70 fluorescence microscope. The images were recorded using an Olympus C-3030 Zoom Camedia Digital Camera.
The inventors employed FITC-LPS to assess binding to TLR4 on the cell surface of melanoma lines. PIC-FITC and zymosan-FITC were not available for assessment. […] The FITC-LPS analysis confirmed TLR4 receptor staining on the melanoma cell surface.

T1 sequence (O00206 24-839): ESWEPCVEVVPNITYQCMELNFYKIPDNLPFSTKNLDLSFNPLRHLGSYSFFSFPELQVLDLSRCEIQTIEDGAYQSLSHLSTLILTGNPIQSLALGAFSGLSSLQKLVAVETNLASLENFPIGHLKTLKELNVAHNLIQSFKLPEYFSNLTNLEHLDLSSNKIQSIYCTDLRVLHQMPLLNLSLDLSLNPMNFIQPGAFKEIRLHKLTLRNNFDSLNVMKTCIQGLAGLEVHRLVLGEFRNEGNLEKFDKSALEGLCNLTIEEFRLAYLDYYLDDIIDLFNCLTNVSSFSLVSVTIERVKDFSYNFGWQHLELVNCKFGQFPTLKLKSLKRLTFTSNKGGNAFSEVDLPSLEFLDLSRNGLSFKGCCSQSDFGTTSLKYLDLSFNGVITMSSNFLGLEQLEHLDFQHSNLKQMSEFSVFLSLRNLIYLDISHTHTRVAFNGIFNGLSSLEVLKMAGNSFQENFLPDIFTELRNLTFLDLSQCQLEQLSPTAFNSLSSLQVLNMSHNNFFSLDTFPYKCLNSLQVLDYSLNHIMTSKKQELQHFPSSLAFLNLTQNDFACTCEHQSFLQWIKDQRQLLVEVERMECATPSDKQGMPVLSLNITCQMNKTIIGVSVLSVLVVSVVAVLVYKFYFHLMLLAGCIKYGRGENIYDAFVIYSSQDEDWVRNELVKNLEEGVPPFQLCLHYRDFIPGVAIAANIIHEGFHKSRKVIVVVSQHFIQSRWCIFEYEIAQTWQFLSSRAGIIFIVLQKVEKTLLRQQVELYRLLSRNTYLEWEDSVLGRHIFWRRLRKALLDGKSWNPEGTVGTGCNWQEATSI
T1 sequence (Q9Y6Y9 17-160 limits assumed): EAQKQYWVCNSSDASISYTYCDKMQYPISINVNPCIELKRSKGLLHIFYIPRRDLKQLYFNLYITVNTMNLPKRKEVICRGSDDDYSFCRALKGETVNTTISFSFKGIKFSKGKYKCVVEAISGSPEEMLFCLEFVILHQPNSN

binding to melanoma cell surface (staining) [1]: direct binding of LPS to melanoma cells
Substance: fluorescein isothiocyanate (FITC)-LPS [FITC-LPS]
staining intensity of PBLs compared with melanoma cells (PBLs): stained with more intensity
